Source: patent US10633419B2, “Immunomodulators” (BRISTOL-MYERS SQUIBB COMPANY, priority 2014, dated 2020)
Starred links: 1 amine or outer side, 2 acyl side, 3 side chain; linkers in the order of their positions; H or OH if unused. Positions of bridges follow the written chain, without caps; N, C: chain ends. Non-standard residues stand in square brackets, D forms with d. Residues, ends and D or L forms follow the SMILES beside them. *: point of attachment. X29 = O=C(O)CCCCCCCCCCCCCCCCC(=O)N[C@H](CCC(=O)NCCCC[C@@H](NC(=O)NCC(=O)[C@H](CSCC(=O)[*:1])N[*:2])C(=O)O)C(=O)O; X13 = O=C(O)CCCCCCCCCCCCCCC(=O)N[C@@H](CCC(=O)NCCCOCCOCCOCCCN*)C(=O)O; X4 = O=C(O)CCCCCCCCCCCCCCCCC(=O)N[C@@H](CC(=O)NCCCOCCOCCOCCCN*)C(=O)O; Trp(1-CH2COOH) = N[C@@H](Cc1cn(CC(=O)O)c2ccccc12)C(=O)O; d(cisHyp) = O=C(O)[C@H]1C[C@@H](O)CN1; NH(CH2)12COOH = O=C(O)CCCCCCCCCCCCN*; Hyp = O=C(O)[C@@H]1C[C@@H](O)CN1; Undecanoyl = CCCCCCCCCCC(=O)*; NMeNle = CCCC[C@H](NC)C(=O)O; NMeA = CN[C@@H](C)C(=O)O; Pra = C#CC[C@H](N)C(=O)O; Aun = NCCCCCCCCCCC(=O)O; Dab = NCC[C@H](N)C(=O)O; Dap = NC[C@H](N)C(=O)O

Each compound was assayed against T1, PD-L1 (Homo sapiens, UniProt Q9NZQ7) (assay: PD-1/PD-L1 Homogenous Time-Resolved Fluorescence (HTRF) binding assay (PD-1-Ig/PD-L1-His)). Conditions: inhibition of PD-1-Ig binding to PD-L1-TVMV-His; value given as number; read-out: HTRF IC50.
T1 construct: hPDL1(19-239)-TVMV-His; made in house; host or cells: HEK293T
T1 sequence (Q9NZQ7 with tags, fused parts or gaps): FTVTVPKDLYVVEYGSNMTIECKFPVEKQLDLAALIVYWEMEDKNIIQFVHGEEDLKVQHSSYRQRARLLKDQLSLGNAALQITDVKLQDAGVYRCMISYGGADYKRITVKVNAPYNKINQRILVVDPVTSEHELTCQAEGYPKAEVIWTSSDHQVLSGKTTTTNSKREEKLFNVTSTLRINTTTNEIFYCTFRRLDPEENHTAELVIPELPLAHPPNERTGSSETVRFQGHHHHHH
Method in brief: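 Inhibitors pre-incubated 15 min with PD-L1-His (10 nM final), then PD-1-Ig (20 nM final) added for 15 min in dPBS/0.1% BSA/0.05% Tween-20. Eu-cryptate anti-Ig (1 nM) and APC anti-His (20 nM) added, 30 min equilibration, 665/620 nm HTRF ratio read.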

Row | IC50 | Structure (SMILES)
1 | 54.6 nM | CCCCCCCCCCC(=O)NCCCC[C@H](NC(=O)[C@H](CC(=O)O)NC(=O)CNC(=O)CNC(=O)CNC(=O)[C@@H]1CSCC(=O)N[C@@H](Cc2ccc(O)cc2)C(=O)N(C)[C@@H](C)C(=O)N[C@@H](CC(N)=O)C(=O)N2CCC[C@H]2C(=O)N[C@@H](CCN)C(=O)N[C@@H](CC(C)C)C(=O)N2C[C@H](O)C[C@H]2C(=O)N[C@@H](Cc2c[nH]c3ccccc23)C(=O)N[C@@H](CO)C(=O)N[C@@H](Cc2c[nH]c3ccccc23)C(=O)N(C)[C@@H](CCCC)C(=O)N(C)[C@@H](CCCC)C(=O)N[C@@H](CCCNC(=N)N)C(=O)N1)C(N)=O [Example 11003] ({CH2CO}-Y[NMeA]NP[Dab]L[Hyp]WSW[NMeNle][NMeNle]RCGGGDK(Undecanoyl)-NH2; thioether N-14)

Same assay, conditions: inhibition of PD-1-Ig binding to PD-L1-TVMV-His; value given as range class; read-out: HTRF IC50

Row | IC50 | Structure (SMILES)
2 | 10 to 99 nM | CCCC[C@H]1C(=O)N(C)[C@@H](CCCC)C(=O)N[C@@H](CC(C)C)C(=O)N[C@H](C(=O)NCC(=O)N[C@@H](CC(=O)O)C(=O)N[C@@H](CC(=O)O)C(=O)NCCCCCCCCCCCCC(=O)O)CSCC(=O)N[C@@H](Cc2ccc(O)cc2)C(=O)N(C)[C@@H](C)C(=O)N[C@@H](CC(N)=O)C(=O)N2CCC[C@H]2C(=O)N[C@@H](CN)C(=O)N[C@@H](CC(C)C)C(=O)N2C[C@H](O)C[C@H]2C(=O)N[C@@H](Cc2c[nH]c3ccccc23)C(=O)N[C@@H](CCN)C(=O)N[C@@H](Cc2cn(CC(=O)O)c3ccccc23)C(=O)N1C [Example 11217] ({CH2CO}-Y[NMeA]NP[Dap]L[Hyp]W[Dab][Trp(1-CH2COOH)][NMeNle][NMeNle]LCGDD-{NH(CH2)12COOH}; thioether N-14)
3 | 0.3 to 9.9 nM | C#CC[C@H](NC(=O)CNC(=O)[C@@H]1CSCC(=O)N[C@@H](Cc2ccc(O)cc2)C(=O)N(C)[C@@H](C)C(=O)N[C@@H](CC(=O)O)C(=O)N2CCC[C@H]2C(=O)N[C@@H](Cc2c[nH]cn2)C(=O)N[C@@H](CCCCN)C(=O)N2C[C@H](O)C[C@H]2C(=O)N[C@@H](Cc2c[nH]c3ccccc23)C(=O)N[C@@H](CCCCN)C(=O)N[C@@H](Cc2cn(CC(=O)O)c3ccccc23)C(=O)N(C)[C@@H](CCCC)C(=O)N(C)[C@@H](CCCC)C(=O)N[C@@H](CCC(=O)O)C(=O)N1)C(=O)NCC(N)=O [INT 1400D] ({CH2CO}-Y[NMeA]DPHK[Hyp]WK[Trp(1-CH2COOH)][NMeNle][NMeNle]ECG[Pra]G-NH2; thioether N-14)
4 | 0.3 to 9.9 nM | CCCC[C@H]1C(=O)N(C)[C@@H](CCCC)C(=O)N[C@@H](CC(C)C)C(=O)C[C@H](C(=O)NCC(=O)N[C@@H](CCC(=O)O)C(=O)NCCCOCCOCCOCCCNC(=O)CC[C@H](NC(=O)CCCCCCCCCCCCCCCCC(=O)O)C(=O)O)CSCC(=O)N[C@@H](Cc2ccc(O)cc2)C(=O)N(C)[C@@H](C)C(=O)N[C@@H](CC(N)=O)C(=O)N2CCC[C@H]2C(=O)N[C@@H](CN)C(=O)N[C@@H](CC(C)C)C(=O)N2C[C@H](O)C[C@H]2C(=O)N[C@@H](Cc2c[nH]c3ccccc23)C(=O)N[C@@H](CCN)C(=O)N[C@@H](Cc2cn(CC(=O)O)c3ccccc23)C(=O)N1C [Example 11167]
5 | 10 to 99 nM | CCCC[C@H]1C(=O)N(C)[C@@H](CCCC)C(=O)N[C@@H](CC(C)C)C(=O)N[C@H](C(=O)CNC(=O)N[C@H](CCCCNC(=O)CC[C@@H](NC(=O)CCCCCCCCCCCCCCCCC(=O)O)C(=O)O)C(=O)O)CSCC(=O)N[C@@H](Cc2ccc(O)cc2)C(=O)N(C)[C@@H](C)C(=O)N[C@@H](CC(N)=O)C(=O)N2CCC[C@H]2C(=O)N[C@@H](CN)C(=O)N[C@@H](CC(C)C)C(=O)N2C[C@H](O)C[C@H]2C(=O)N[C@@H](Cc2c[nH]c3ccccc23)C(=O)N[C@@H](CCN)C(=O)N[C@@H](Cc2cn(CC(=O)O)c3ccccc23)C(=O)N1C [Example 11134] (Y[NMeA]NP[Dap]L[Hyp]W[Dab][Trp(1-CH2COOH)][NMeNle][NMeNle]L; linker N-C via X29)
6 | 10 to 99 nM | CCCC[C@H]1C(=O)N(C)[C@@H](CCCC)C(=O)N[C@@H](CC(C)C)C(=O)N[C@H](C(=O)NCCCOCCOCCOCCCNC(=O)C[C@H](NC(=O)CCCCCCCCCCCCCCCCC(=O)O)C(=O)O)CSCC(=O)N[C@@H](Cc2ccc(O)cc2)C(=O)N(C)[C@@H](C)C(=O)N[C@@H](CC(N)=O)C(=O)N2CCC[C@H]2C(=O)N[C@@H](CN)C(=O)N[C@@H](CC(C)C)C(=O)N2C[C@H](O)C[C@H]2C(=O)N[C@@H](Cc2c[nH]c3ccccc23)C(=O)N[C@@H](CCN)C(=O)N[C@@H](Cc2cn(CC(=O)O)c3ccccc23)C(=O)N1C [Example 11258] ({CH2CO}-Y[NMeA]NP[Dap]L[Hyp]W[Dab][Trp(1-CH2COOH)][NMeNle][NMeNle]LC-X4; thioether N-14)

Continued, compound first:

Row | Structure (SMILES) | IC50
7 | C#CC[C@H](NC(=O)CNC(=O)[C@@H]1CSCC(=O)N[C@@H](Cc2ccc(O)cc2)C(=O)N(C)[C@@H](C)C(=O)N[C@@H](CC(=O)O)C(=O)N2CCC[C@H]2C(=O)N[C@@H](Cc2c[nH]cn2)C(=O)N[C@@H](CCCCN)C(=O)N2C[C@H](O)C[C@H]2C(=O)N[C@@H](Cc2c[nH]c3ccccc23)C(=O)N[C@@H](CCCCN)C(=O)N[C@@H](Cc2c[nH]c3ccccc23)C(=O)N(C)[C@@H](CCCC)C(=O)N(C)[C@@H](CCCC)C(=O)N[C@@H](CCC(=O)O)C(=O)N1)C(=O)N[C@@H](CC(=O)O)C(N)=O [INT 1400B] ({CH2CO}-Y[NMeA]DPHK[Hyp]WKW[NMeNle][NMeNle]ECG[Pra]D-NH2; thioether N-14) | 0.3 to 9.9 nM
8 | CCCC[C@H]1C(=O)N(C)[C@@H](CCCC)C(=O)N[C@@H](CC(C)C)C(=O)N[C@H](C(=O)NCCCCCCCCCCC(=O)N[C@@H](CC(=O)O)C(N)=O)CSCC(=O)N[C@@H](Cc2ccc(O)cc2)C(=O)N(C)[C@@H](C)C(=O)N[C@@H](CC(N)=O)C(=O)N2CCC[C@H]2C(=O)N[C@@H](Cc2cnc[nH]2)C(=O)N[C@@H](CCC(=O)O)C(=O)N2C[C@H](O)C[C@H]2C(=O)N[C@@H](Cc2c[nH]c3ccccc23)C(=O)N[C@@H](CCN)C(=O)N[C@@H](Cc2cn(CC(=O)O)c3ccccc23)C(=O)N1C [Example 11066] ({CH2CO}-Y[NMeA]NPHE[Hyp]W[Dab][Trp(1-CH2COOH)][NMeNle][NMeNle]LC[Aun]D-NH2; thioether N-14) | 0.3 to 9.9 nM
9 | CCCCCCCCCCC(=O)NCCCC[C@H](NC(=O)[C@H](CC(=O)O)NC(=O)CNC(=O)[C@@H]1CSCC(=O)N[C@@H](Cc2ccc(O)cc2)C(=O)N(C)[C@@H](C)C(=O)N[C@@H](CC(=O)O)C(=O)N2CCC[C@H]2C(=O)N[C@@H](Cc2cnc[nH]2)C(=O)N[C@@H](CC(C)C)C(=O)N2C[C@H](O)C[C@H]2C(=O)N[C@@H](Cc2c[nH]c3ccccc23)C(=O)N[C@@H](CO)C(=O)N[C@@H](Cc2c[nH]c3ccccc23)C(=O)N(C)[C@@H](CCCC)C(=O)N(C)[C@@H](CCCC)C(=O)N[C@@H](CCCNC(=N)N)C(=O)N1)C(N)=O [Example 11006] ({CH2CO}-Y[NMeA]DPHL[Hyp]WSW[NMeNle][NMeNle]RCGDK(Undecanoyl)-NH2; thioether N-14) | 10 to 99 nM
10 | CCCC[C@H]1C(=O)N(C)[C@@H](CCCC)C(=O)N[C@@H](CC(C)C)C(=O)N[C@H](C(=O)NCC(=O)N[C@@H](CC(=O)O)C(=O)NCCCOCCOCCOCCCNC(=O)CC[C@H](NC(=O)CCCCCCCCCCCCCCC(=O)O)C(=O)O)CSCC(=O)N[C@@H](Cc2ccc(O)cc2)C(=O)N(C)[C@@H](C)C(=O)N[C@@H](CC(N)=O)C(=O)N2CCC[C@H]2C(=O)N[C@@H](CN)C(=O)N[C@@H](CC(C)C)C(=O)N2C[C@H](O)C[C@@H]2C(=O)N[C@@H](Cc2c[nH]c3ccccc23)C(=O)N[C@@H](CCN)C(=O)N[C@@H](Cc2cn(CC(=O)O)c3ccccc23)C(=O)N1C [Example 11162] ({CH2CO}-Y[NMeA]NP[Dap]L[d(cisHyp)]W[Dab][Trp(1-CH2COOH)][NMeNle][NMeNle]LCGD-X13; thioether N-14) | 100 to 1600 nM
11 | CCCC[C@H]1C(=O)N(C)[C@@H](CCCC)C(=O)N[C@@H](CC(C)C)C(=O)N[C@H](C(=O)NCC(=O)N[C@@H](CCC(=O)O)C(=O)NCCCOCCOCCOCCCNC(=O)C[C@H](NC(=O)CCCCCCCCCCCCCCCCC(=O)O)C(=O)O)CSCC(=O)N[C@@H](Cc2ccc(O)cc2)C(=O)N(C)[C@@H](C)C(=O)N[C@@H](CC(N)=O)C(=O)N2CCC[C@H]2C(=O)N[C@@H](CN)C(=O)N[C@@H](CC(C)C)C(=O)N2C[C@H](O)C[C@@H]2C(=O)N[C@@H](Cc2c[nH]c3ccccc23)C(=O)N[C@@H](CCN)C(=O)N[C@@H](Cc2cn(CC(=O)O)c3ccccc23)C(=O)N1C [Example 11257] ({CH2CO}-Y[NMeA]NP[Dap]L[d(cisHyp)]W[Dab][Trp(1-CH2COOH)][NMeNle][NMeNle]LCGE-X4; thioether N-14) | 0.3 to 9.9 nM
12 | CCCC[C@H]1C(=O)N(C)[C@@H](CCCC)C(=O)N[C@@H](CCCNC(=N)N)C(=O)N[C@H](C(=O)NCC(=O)NCC(=O)NCCCCCCCCCCC(=O)O)CSCC(=O)N[C@@H](Cc2ccc(O)cc2)C(=O)N(C)[C@@H](C)C(=O)N[C@@H](CC(=O)O)C(=O)N2CCC[C@H]2C(=O)N[C@@H](Cc2cnc[nH]2)C(=O)N[C@@H](CC(C)C)C(=O)N2C[C@H](O)C[C@H]2C(=O)N[C@@H](Cc2c[nH]c3ccccc23)C(=O)N[C@@H](CO)C(=O)N[C@@H](Cc2c[nH]c3ccccc23)C(=O)N1C [Example 11071] ({CH2CO}-Y[NMeA]DPHL[Hyp]WSW[NMeNle][NMeNle]RCGG[Aun]-OH; thioether N-14) | 0.3 to 9.9 nM
13 | C#CC[C@H](NC(=O)CNC(=O)[C@@H]1CSCC(=O)N[C@@H](Cc2ccc(O)cc2)C(=O)N(C)[C@@H](C)C(=O)N[C@@H](CC(=O)O)C(=O)N2CCC[C@H]2C(=O)N[C@@H](Cc2c[nH]cn2)C(=O)N[C@@H](CCC(N)=O)C(=O)N2C[C@H](O)C[C@H]2C(=O)N[C@@H](Cc2c[nH]c3ccccc23)C(=O)N[C@@H](CO)C(=O)N[C@@H](Cc2c[nH]c3ccccc23)C(=O)N(C)[C@@H](CCCC)C(=O)N(C)[C@@H](CCCC)C(=O)N[C@@H](CCC(=O)O)C(=O)N1)C(N)=O [INT 1400H, ClAc-Tyr-mAla-Asp-Pro-His-Gln-Hyp-Trp-Ser-Trp-mNle-mNle-Glu-Cys-Gly-[(S)-propargylglycine]] ({CH2CO}-Y[NMeA]DPHQ[Hyp]WSW[NMeNle][NMeNle]ECG[Pra]-NH2; thioether N-14) | 0.3 to 9.9 nM
